Results published in patent US20250346642A1, “NEW SPLICE VARIANT ISOFORM OF VEGF” (CENTRE NATIONAL DE LA RECHERCHE SCIENTIFIQUE (CNRS), priority 2020, published 2025).
Like-named read-outs stand apart in the source and are kept apart here.

Experiments:
786-O cells = assay: RT-qPCR of VEGF and VEGF222/NF in 786-O cells transduced with shRNA; format: cell-based
Description: (§1) For these constructs, the C-terminal V5-tag was not in frame. To generate lentiviral shRNA plasmids, pLKO.1-TRC cloning vector, a kind gift from David Roots, has been used. pLKO.1-TRC contains a 1.9 kb stuffer released by Agel and EcoRI digestion. shRNA oligos were annealed and ligated into the Agel and EcoRI sites in place of the stuffer. The following shRNA sequences were used: shScramble: 5′-[…]-3′ (SEQ ID NO: 26); shVEGF #1: 5′-[…]-3′ (SEQ ID NO: 27) shVEGF #2: 5′-[…]-3′ (SEQ ID NO: 28); shVEGFNF #1: 5′-[…]-3′ (SEQ ID NO: 29); shVEGFNF #2: 5′-[…]-3′(SEQ ID NO: 30); shNRP1: 5′-[…]-3′(SE ID NO: 31); shNRP2: 5′-[…]-3 (SEQ ID NO: 32)′. All plasmids were verified by Sanger sequencing (Eurofins Genomics).
(§2) Lentivirus were produced by triple transfection of HEK-293T cells with a lentiviral transfer vector (pLenti6.3 for overexpression experiments and pLKO.1 for shRNA experiments), and the packaging plasmids psPAX2 and pMD2.G at a 0.3:0.3:0.1 ratio. Transfection was performed using JetPEI® reagent as recommended by the manufacturer Polyplus transfection. The viral supernatant was collected 48 hours following transfection, filtered through a 0.22 μm filter, and added to target cells.
(§3) RT-PCR and RT-qPCR analyses were carried out on human tissue mRNA (BIOCHAIN®) and on cancer cell lines. mRNAs were prepared with a Nucleospin RNA kit (Macherey-Nagel), and cDNA synthesis was performed with a Maxima First Strand CDNA Synthesis Kit for RT-qPCR, with dsDNase (Fischer scientific), according to the manufacturers' instructions.
(§4) PCR analysis was performed on Biometra thermal cycler with PrimeSTAR GXL DNA polymerase (Takara Bio). Quantitative PCR analysis was performed on Applied Biosystems StepOnePlus™ System with TB Green® premix Ex Taq™ (Tli RNase H Plus) (Takara Bio) reagents. All samples were assayed in triplicate. Relative expression levels were determined with the dCt method and normalized to the 36B4 reference gene.

ACHN cells [1] = assay: RT-qPCR of VEGF and VEGF222/NF in ACHN cells transduced with shRNA; format: cell-based
Description: as §1, §2, §3, §4

metastatic ccRCC = assay: PFS and OS of metastatic (M1) ccRCC patients treated by sunitinib, grouped by plasma VEGF222/NF; format: in vivo, human
Description: Informed consent was obtained from all individual participants included in the study. All patients gave written consent for the use of tumor and blood samples for research. This study was conducted in accordance with the Declaration of Helsinki. Primary tumor samples of 93 non-metastatic (M0) ccRCC patients were obtained from the Rennes and Bordeaux University Hospitals (UroCCR group, NCT03293563). For metastatic patients, the population of the study included 47 ccRCC patients from the prospective SUVEGIL (NCT00943839) and TORAVA (NCT00619268) trials and from a retrospective cohort from Pavia (Italy).
Informed consent was obtained from all individual participants included in the study. All patients gave written consent for the use of tumor and blood samples for research. This study was conducted in accordance with the Declaration of Helsinki. Primary tumor samples of 93 non-metastatic (M0) ccRCC patients were obtained from the Rennes and Bordeaux University Hospitals (UroCCR group, NCT03293563). For metastatic patients, the population of the study included 47 ccRCC patients from the prospective SUVEGIL (NCT00943839) and TORAVA (NCT00619268) trials and from a retrospective cohort from Pavia (Italy). Metastatic patients received oral sunitinib (50 mg per day) once a day for 4 weeks (on days 1 to 28), followed by 2 weeks of treatment interruption. Sunitinib was continued in the absence of disease progression or unacceptable toxicity. Blood samples were collected before the beginning of the treatment (TO). Blood samples were centrifuged (10 000 g for 10 min) and the plasmas were collected and conserved at −80° C. Plasmatic levels of VEGF and VEGF222/NF were determined by ELISA as described in the ELISA method details section. PFS and OS were calculated from patient subgroups with VEGFA or VEGF222/NF plasmatic levels that were less or greater than the third quartile value.
Statistical analysis was carried out using GraphPad Prism 8. Data were expressed as mean±SEM and were compared using an unpaired Mann-Whitney test for intergroup analysis. For patients: The Student's t-test was used to compare continuous variables and chi-square test, or Fisher's exact test (when the conditions for use of the χ2-test were not fulfilled), were used for categorical variables. DFS was defined as the time from surgery to the appearance of metastasis. PFS was defined as the time between surgery and progression, or death from any cause, censoring live patients and progression free at the last follow-up. OS was defined as the time between surgery and the date of death from any cause, censoring those alive at the last follow-up. The Kaplan-Meier method was used to produce survival curves and analyses of censored data were performed using Cox models. Significance was defined as P<0.05.
The detrimental effects of VEGF222/NF in immunodeficient mice and zebrafish models prompted us to analyze the prognostic impact of its plasmatic levels in comparison to plasmatic VEGF level on a cohort of 47 metastatic (M1) ccRCC patients treated by sunitinib. The third quartile was used as the cut-off to determine patients' groups, respectively 4500 […] for VEGF and VEGF222/NF. […] However, patients with high plasmatic levels of both VEGF222/NF and VEGF had the shortest PFS (FIG. 14). […] Whereas VEGF was not associated with a significant effect on OS, high expression of VEGF222/NF WAS synonymous of a shorter overall survival (OS) in M1 patients (FIGS. 13C,D).

VEGFR1 = target: T1, VEGFR1 (UniProt P17948 27-756, limits assumed); assay: saturation binding experiment
T1 construct: also called VEGFR1/Flt1

VEGFR2 = target: T2, VEGFR2 (UniProt P35968 20-764, limits assumed); assay: saturation binding experiment
T2 construct: also called VEGFR2/KDR

VEGFR3 = target: T3, VEGFR3 (UniProt P35916 25-776, limits assumed); assay: saturation binding experiment
T3 sequence (looked up): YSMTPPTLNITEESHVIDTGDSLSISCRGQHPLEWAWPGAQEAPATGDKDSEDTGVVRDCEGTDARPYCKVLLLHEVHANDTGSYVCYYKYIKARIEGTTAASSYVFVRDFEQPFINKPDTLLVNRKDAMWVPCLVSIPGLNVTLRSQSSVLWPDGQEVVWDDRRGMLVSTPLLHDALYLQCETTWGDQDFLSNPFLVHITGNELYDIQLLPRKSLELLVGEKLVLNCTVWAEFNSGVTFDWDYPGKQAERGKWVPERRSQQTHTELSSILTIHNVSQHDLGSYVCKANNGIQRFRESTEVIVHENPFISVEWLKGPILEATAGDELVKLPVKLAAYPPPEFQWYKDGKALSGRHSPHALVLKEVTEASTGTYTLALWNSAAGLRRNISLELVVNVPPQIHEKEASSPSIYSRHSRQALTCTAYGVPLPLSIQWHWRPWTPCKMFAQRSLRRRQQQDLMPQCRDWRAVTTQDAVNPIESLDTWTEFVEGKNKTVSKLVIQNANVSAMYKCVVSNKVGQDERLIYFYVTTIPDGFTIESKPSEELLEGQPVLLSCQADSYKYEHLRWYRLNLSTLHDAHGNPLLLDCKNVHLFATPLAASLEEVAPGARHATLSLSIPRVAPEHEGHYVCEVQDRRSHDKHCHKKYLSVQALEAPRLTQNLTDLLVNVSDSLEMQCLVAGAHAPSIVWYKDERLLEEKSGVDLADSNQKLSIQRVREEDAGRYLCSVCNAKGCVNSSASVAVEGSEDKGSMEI

[2] = In vivo […] plug assay (hemoglobin content); design: species or system mice; conditions: 200 ng in 200 μL MATRIGEL, two weeks
Description: A″) VEGF222/NF induces phosphorylation of VEGFR2 and activation of the downstream signaling pathways AKT and ERK. […] Cells were washed with PBS and lyzed with Laemmli buffer. Immuno blots were performed with the indicated antibodies. […] Cells were counted for 7 days. […] D) Wound closure was determined at 3 h, 6 h, 9 h and 12 h following treatment. E) In vitro permeability assay. […] Streptavidin-HRP was then added to the transwell for 10 minutes and TMB substrate was added in the lower compartment to assess permeability. F) In vivo permeability assay. […] After 20 minutes, ears were recovered, and the amount of Evans blue was determined by colorimetry (top panel). […] G) In vivo plug assay. […] Representative photographs of the […]® plug 15 days after implantation (bottom panel).
6-weeks old female NMRI mice (n=15) were used for this experiment. […] […]® plugs were recovered after two weeks for hemoglobin quantity analysis. Plugs hemoglobin content was assessed with the hemoglobin assay kit (Sigma Aldrich) and experiments were conducted according to the manufacturer recommendations. Results are expressed in micrograms of hemoglobin per milligram of […]®.

ACHN cells [3] = assay: Proliferation of ACHN cells overexpressing VEGF165 or VEGF222/NF; format: cell-based; conditions: overexpression in ACHN cells, versus LacZ
Description: FIG. 6. VEGF222/NF promotes the proliferation and the survival of RCC cells. […] Cells were counted for 7 days. ***P<0.001 vs LacZ. D-E) RT-qPCR analysis of the expression of VEGF222/NF and VEGF in ACHN (D) and in 786-O (E) cells transduced with pLKO.1 expressing shVEGF165 or shVEGF222/NF. *P<0.05. **P<0.01, ***P<0.001 vs Scramble.
For endothelial cell proliferation assays, TIME or HDLECs cells (50.000 and 25.000, respectively) were seeded in 6-well plates in Endothelial Cell Growth Medium (Promocell) containing 0.5% FBS. […] Results were expressed as fold increase considering day 0 as the reference. For ACHN proliferation, ACHN-LacZ, ACHN-VEGF165, ACHN-VEGF222/NF cells were seeded (20.000) in 6-well plates in DMEM medium containing 0.5% FBS. Cells were counted at day 0, 1, 3, 5 and 7. Results are expressed as fold increase considering day 0 as the reference.

[4] = 786-O cells, pLKO.1 lentiviral transduction
[5] = ACHN cells, pLKO.1 lentiviral transduction

T1 sequence (P17948 27-756 limits assumed): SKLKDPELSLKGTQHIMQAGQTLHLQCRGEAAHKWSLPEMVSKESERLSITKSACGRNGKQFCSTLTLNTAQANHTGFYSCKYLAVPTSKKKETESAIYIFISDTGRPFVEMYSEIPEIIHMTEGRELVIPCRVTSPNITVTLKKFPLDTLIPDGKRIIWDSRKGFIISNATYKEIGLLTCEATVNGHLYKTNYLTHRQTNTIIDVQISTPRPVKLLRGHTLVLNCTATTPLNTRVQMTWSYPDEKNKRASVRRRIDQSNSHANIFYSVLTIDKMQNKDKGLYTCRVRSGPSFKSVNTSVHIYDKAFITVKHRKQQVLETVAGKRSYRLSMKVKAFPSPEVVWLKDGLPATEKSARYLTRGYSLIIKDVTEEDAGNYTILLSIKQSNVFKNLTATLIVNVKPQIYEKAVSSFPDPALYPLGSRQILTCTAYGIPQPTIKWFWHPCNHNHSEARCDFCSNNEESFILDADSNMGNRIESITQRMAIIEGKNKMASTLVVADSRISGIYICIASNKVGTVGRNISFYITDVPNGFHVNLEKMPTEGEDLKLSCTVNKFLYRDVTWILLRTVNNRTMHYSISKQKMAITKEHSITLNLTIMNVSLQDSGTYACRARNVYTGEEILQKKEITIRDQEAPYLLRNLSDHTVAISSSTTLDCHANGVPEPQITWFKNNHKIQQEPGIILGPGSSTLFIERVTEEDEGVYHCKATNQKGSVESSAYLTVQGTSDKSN
T2 sequence (P35968 20-764 limits assumed): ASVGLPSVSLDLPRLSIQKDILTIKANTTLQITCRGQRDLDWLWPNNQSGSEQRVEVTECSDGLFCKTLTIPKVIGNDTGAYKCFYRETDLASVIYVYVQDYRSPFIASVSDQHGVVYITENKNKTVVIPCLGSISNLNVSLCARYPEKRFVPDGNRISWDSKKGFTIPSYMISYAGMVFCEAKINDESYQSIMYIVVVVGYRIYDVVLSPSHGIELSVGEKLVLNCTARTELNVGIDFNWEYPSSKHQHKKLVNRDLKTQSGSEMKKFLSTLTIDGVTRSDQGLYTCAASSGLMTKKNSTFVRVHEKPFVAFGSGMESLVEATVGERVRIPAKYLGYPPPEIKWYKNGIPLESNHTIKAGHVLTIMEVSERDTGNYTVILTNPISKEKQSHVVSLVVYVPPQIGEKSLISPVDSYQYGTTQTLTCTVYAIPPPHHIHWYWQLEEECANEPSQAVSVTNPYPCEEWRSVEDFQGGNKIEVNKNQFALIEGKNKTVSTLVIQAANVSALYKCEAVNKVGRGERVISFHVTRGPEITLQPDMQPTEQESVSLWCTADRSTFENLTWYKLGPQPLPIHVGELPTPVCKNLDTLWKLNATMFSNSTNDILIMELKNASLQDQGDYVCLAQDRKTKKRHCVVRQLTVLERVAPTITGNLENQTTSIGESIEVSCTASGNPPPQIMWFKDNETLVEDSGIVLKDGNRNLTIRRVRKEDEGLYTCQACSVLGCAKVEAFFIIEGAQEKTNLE

5′-AGGGCAGAATCATCACGAAGT-3′ (expressed or natural sequence) [shRNA #2]
expression of the respective target (VEGF or VEGF222/NF) (786-O cells; [4]): downregulated the expression of their respective targets | expression of the respective target (VEGF or VEGF222/NF) (ACHN cells [1]; [5]): downregulated the expression of their respective targets

5′-CATITCCCTCAGATGTGACAA-3′ (CATTTCCCTCAGATGTGACAA; chemistry not given here) [shRNA NF #2]
expression of the respective target (VEGF or VEGF222/NF) (786-O cells): downregulated the expression of their respective targets | expression of the respective target (VEGF or VEGF222/NF) (ACHN cells [1]): downregulated the expression of their respective targets

5′-GCCTTTGTITTCCATTTCC-3′ (GCCTTTGTTTTCCATTTCC; chemistry not given here) [shRNA NF #1]
expression of the respective target (VEGF or VEGF222/NF) (786-O cells): downregulated the expression of their respective targets | expression of the respective target (VEGF or VEGF222/NF) (ACHN cells [1]): downregulated the expression of their respective targets

5′-GCGCAAGAAATCCCGGTATAA-3′ (expressed or natural sequence) [shRNA #1]
expression of the respective target (VEGF or VEGF222/NF) (786-O cells; [4]): downregulated the expression of their respective targets | expression of the respective target (VEGF or VEGF222/NF) (ACHN cells [1]; [5]): downregulated the expression of their respective targets

CCN(CC)CCNC(=O)c1c(C)[nH]c(/C=C2\C(=O)Nc3ccc(F)cc32)c1C [sunitinib]
Death % (metastatic ccRCC; High VEGF222/NF): 83% | OS (months) (metastatic ccRCC; High VEGF222/NF): 13 months | PFS (months) (metastatic ccRCC; High VEGF222/NF): 5 months | progression % (metastatic ccRCC; High VEGF222/NF): 83% | Death % (metastatic ccRCC; Low VEGF222/NF): 68% | OS (months) (metastatic ccRCC; Low VEGF222/NF): 37 months | PFS (months) (metastatic ccRCC; Low VEGF222/NF): 15 months | progression % (metastatic ccRCC; Low VEGF222/NF): 76% | Death % (metastatic ccRCC; Total): 75% | OS (months) (metastatic ccRCC; Total): 33 months | progression % (metastatic ccRCC; Total): 82% | PFS (months) (metastatic ccRCC; Total, 47 M1 ccRCC patients): 12 months

B1: recombinant VEGF222/NF protein produced in HEK293 cells by ProteoGenix (ligand)
chain: GSHHHHHHSGLEVLFQGPAPMAEGGGQNHHEVVKFMDVYQRSYCHPIETLVDIFQEYPDEIEYIFKPSCVPLMRCGGCCNDEGLECVPTEESNITMQIMRIKPHQGQHIGEMSFLQHNKCECRPKKDRARQENPCGPCSERRKHLFVQDPQTCKCSCKNTDSRCKARQLELNERTCSLCFPFPSDVTSRGGEPGRRKEPPSGFREPDLSPGKTDTERSIQKPRCRHHTITIDRTVLNPET
notes: also called VEGF222 New Form; rVEGF222/NF
Kd (VEGFR1): 1.12 nM | Kd (VEGFR2): 0.73 nM | Kd (VEGFR3): 10.4 nM

B2: VEGF165: conventional pro-angiogenic VEGF isoform, recombinant, used as comparator (protein)
chain: APMAEGGGQNHHEVVKFMDVYQRSYCHPIETLVDIFQEYPDEIEYIFKPSCVPLMRCGGCCNDEGLECVPTEESNITMQIMRIKPHQGQHIGEMSFLQHNKCECRPKKDRARQENPCGPCSERRKHLFVQDPQTCKCSCKNTDSRCKARQLELNERTCRCDKPRR
reddish aspect and hemoglobin content of plugs [2]: equivalent | ACHN cell proliferation (ACHN cells [3]): stimulated ACHN cell proliferation
